Assay results reported in patent US6469008B2, “(R)-hydroxynefazodone antipsychotic therapy” (Sepracor Inc., priority 1999, dated 2002).

What was measured:
[1] = cited from earlier work
benzodiazepine receptors = settings: in vitro binding studies; cited from earlier work
5-HT1B = target: T1, 5-HT1B (Homo sapiens, UniProt P28222); test: 5-HT1B receptor binding; settings: read-out: Serotonin Receptor Binding 5-HT1B (IC50)
T1 construct: host or cells: membrane preparations
Description: (§1) Dopamine and serotonin receptor binding assays were performed in a standard manner with the incubation of membrane preparations in an assay buffer in the presence of a known radioactively labeled specific ligand for the receptor subtypes. Nonspecific binding was determined by assessing binding in the presence of excess ligand. Specific binding was measured as the total labeled ligand bound after the nonspecific binding was subtracted. The effect of the tested agents was measured by determining the competition for the receptor binding across a concentration range. Subsequently, an IC50 was determined for the agents tested. More specific details are provided below for several of the assays performed.

cholinergic receptors = settings: in vitro binding studies; cited from earlier work
dopaminergic receptors = settings: in vitro binding studies; cited from earlier work
5-HT5A = target: T2, 5-HT5A (Homo sapiens, UniProt P47898); test: 5-HT5A receptor binding; settings: read-out: Serotonin Receptor Binding 5-HT5A (IC50)
T2 construct: host or cells: membrane preparations
Description: as §1

α1 Receptor = test: α1 receptor binding; settings: read-out: α1 Receptor Binding Alpha1 (IC50)
[2] = system: alpha1-adrenergic receptors; settings: cited from earlier work
[3] = system: beta adrenergic receptors; settings: in vitro binding studies; cited from earlier work
5-HT1A receptors [4] = target: T3, 5-HT1A receptors (Homo sapiens, UniProt P08908); settings: in vitro binding studies; cited from earlier work
T3 sequence (P08908 1-422): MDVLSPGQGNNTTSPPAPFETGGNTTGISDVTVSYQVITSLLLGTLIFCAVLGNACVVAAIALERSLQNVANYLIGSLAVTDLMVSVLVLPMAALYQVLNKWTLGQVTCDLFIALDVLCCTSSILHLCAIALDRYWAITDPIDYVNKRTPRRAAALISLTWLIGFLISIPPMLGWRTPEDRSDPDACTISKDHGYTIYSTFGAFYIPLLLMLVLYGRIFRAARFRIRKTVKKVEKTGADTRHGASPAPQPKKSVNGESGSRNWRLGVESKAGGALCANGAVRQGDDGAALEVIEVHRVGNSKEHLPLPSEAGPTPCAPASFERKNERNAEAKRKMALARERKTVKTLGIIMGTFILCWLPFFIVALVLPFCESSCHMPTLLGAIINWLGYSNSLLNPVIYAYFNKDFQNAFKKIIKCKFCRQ

5-HT1D = target: T4, 5-HT1D (Homo sapiens, UniProt P28221); test: 5-HT1D receptor binding; settings: read-out: Serotonin Receptor Binding 5-HT1D (IC50)
T4 construct: host or cells: membrane preparations
Description: as §1

5-HT1A receptors [5] = target: T3, 5-HT1A receptors; test: 5-HT1A receptor binding; parameters: expressed in transfected cells; host or cells: CHO cells; settings: [3H]8-OH-DPAT, transfected CHO cell membranes; read-out: Serotonin Receptor Binding 5-HT1A (IC50)
Description: as §1
Aliquots of transfected CHO cell membrane preparations corresponding to 7-15 μg protein are incubated for 60 min at 22° C. in 250 μl of 50 mM Tris-HCl buffer (pH 7.4) containing 10 mM MgSO4, 0.5 mM EDTA, 0.3 nM [^3H]8-OH-DPAT and increasing concentrations of the competing drugs. Nonspecific binding is determined in the presence of 10 μM 8-OH-DPAT. After incubation, the samples are filtered rapidly under vacuum through glass fiber filters (GF/B, Packard) and rinsed several times with ice-cold 50 mM Tris-HCl using a cell harvester (Packard). Bound radioactivity is measured with a scintillation counter (Topcount, Packard) using a liquid scintillation cocktail (Microscint 0, Packard). The reference compound for this assay is 8-OH-DPAT.

[6] = system: alpha2 adrenergic receptors; settings: in vitro binding studies; cited from earlier work
Human D2 receptor = target: T5, Human D2 receptor (Homo sapiens, UniProt P14416); test: Dopamine D2 receptor binding; settings: [3H]spiperone, transfected A9L cell membranes
T5 construct: expressed in transfected cells; host or cells: A9L cells
Description: as §1
Aliquots of transfected A9L cell membrane preparations corresponding to 20-40 μg protein are incubated for 60 min at 22° C. in 250 μl of 50 mM Tris-HCl buffer (pH 7.4) containing 120 mM NaCl, 5 mM KCl, 5 mM MgCl2, 1 mM EDTA, 0.3 nM [^3H]spiperone and increasing concentrations of the competing drugs. Nonspecific binding is determined in the presence of 10 μM (+)butaclamol. After incubation, the samples are filtered rapidly under vacuum through glass fiber filters (GF/B, Packard) and rinsed several times with ice-cold 50 mM Tris-HCl using a cell harvester (Packard). Bound radioactivity is measured with a scintillation counter (Topcount, Packard) using a liquid scintillation cocktail (Microscint 0, Packard). The reference compound for this assay is (+)butaclamol.

T4 sequence (P28221 whole entry, species assumed): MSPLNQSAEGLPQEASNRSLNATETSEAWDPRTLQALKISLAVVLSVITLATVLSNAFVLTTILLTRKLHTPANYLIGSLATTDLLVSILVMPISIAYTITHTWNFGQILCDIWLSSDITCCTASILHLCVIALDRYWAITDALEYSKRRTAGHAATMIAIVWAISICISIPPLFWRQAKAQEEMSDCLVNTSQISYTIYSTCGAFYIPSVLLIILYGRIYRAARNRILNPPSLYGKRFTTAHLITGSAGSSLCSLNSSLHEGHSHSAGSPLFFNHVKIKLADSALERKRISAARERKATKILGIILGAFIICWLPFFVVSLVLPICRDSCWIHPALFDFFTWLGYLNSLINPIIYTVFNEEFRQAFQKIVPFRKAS
T1 sequence (P28222 whole entry, species assumed): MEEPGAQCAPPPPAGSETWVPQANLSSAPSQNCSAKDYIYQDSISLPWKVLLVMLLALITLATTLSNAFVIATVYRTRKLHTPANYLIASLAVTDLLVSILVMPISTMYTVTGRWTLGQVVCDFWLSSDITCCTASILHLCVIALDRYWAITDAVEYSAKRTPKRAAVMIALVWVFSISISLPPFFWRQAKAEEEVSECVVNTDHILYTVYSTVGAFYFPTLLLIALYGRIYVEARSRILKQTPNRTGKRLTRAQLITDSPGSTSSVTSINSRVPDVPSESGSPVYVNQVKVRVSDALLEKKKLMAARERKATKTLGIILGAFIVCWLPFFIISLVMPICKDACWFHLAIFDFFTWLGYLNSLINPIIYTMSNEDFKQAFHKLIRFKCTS
T2 sequence (P47898 whole entry, species assumed): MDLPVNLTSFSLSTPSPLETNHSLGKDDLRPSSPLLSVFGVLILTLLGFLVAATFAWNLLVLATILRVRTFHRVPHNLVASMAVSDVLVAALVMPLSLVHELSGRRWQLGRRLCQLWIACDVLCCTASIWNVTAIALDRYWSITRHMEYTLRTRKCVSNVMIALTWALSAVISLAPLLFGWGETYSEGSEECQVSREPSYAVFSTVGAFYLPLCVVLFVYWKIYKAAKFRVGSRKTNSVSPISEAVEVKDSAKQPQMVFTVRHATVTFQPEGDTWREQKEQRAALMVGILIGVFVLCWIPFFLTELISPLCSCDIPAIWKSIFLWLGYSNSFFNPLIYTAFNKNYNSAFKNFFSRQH
T5 sequence (P14416 whole entry): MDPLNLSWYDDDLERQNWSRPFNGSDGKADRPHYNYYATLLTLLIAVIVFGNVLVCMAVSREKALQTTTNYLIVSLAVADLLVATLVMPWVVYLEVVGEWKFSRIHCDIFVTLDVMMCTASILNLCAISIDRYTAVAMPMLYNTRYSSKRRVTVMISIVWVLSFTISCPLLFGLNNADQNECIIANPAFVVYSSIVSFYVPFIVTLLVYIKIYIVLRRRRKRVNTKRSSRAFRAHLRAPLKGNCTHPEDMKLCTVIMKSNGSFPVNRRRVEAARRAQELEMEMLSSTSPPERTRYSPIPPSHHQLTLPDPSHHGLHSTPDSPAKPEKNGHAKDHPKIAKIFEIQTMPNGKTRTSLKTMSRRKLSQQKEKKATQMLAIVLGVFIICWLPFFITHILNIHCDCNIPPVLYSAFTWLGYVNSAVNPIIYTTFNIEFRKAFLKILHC

- IC50 (5-HT1B): 1870 nM
- IC50 (5-HT5A): 1560 nM
- IC50 (α1 Receptor): 306 nM
- IC50 (5-HT1D): 925 nM
- IC50 (5-HT1A receptors [5]): 625 nM
- IC50 (Human D2 receptor): 716 nM
Compound: CCc1nn(CCCN2CCN(c3cccc(Cl)c3)CC2)c(=O)n1CCOc1ccccc1 [Nefazodone]
- kinetics for dose and time (AUC and Cmax) ([1]; AUC and Cmax increasing more than proportionally with dose and upon multiple dosing): nonlinear kinetics
- half-life ([1]; in vivo): 2 to 4 h
- time of peak plasma concentrations ([1]; in vivo): about one
- absolute bioavailability ([1]; low and variable because of extensive metabolism): about 20%
- affinity for benzodiazepine receptors (benzodiazepine receptors): no significant affinity
- affinity for cholinergic receptors (cholinergic receptors): no significant affinity
- affinity for dopaminergic receptors (dopaminergic receptors): no significant affinity
- action on alpha1-adrenergic receptors [2]: antagonize
- affinity for beta adrenergic receptors [3]: no significant affinity
- affinity for 5-HT1A receptors (5-HT1A receptors [4]): no significant affinity
- affinity for alpha2 adrenergic receptors [6]: no significant affinity
